Assay results reported in patent publication US10421761B2, “Compounds for kinase modulation, and indications therefor” (Plexxikon Inc., priority 2013, dated 2019).

Legend:
[1] = test system: IPC-298 (NRAS Q61L) cell line; assay: IPC-298 P-ERK cell activation assay (AlphaScreen); format: cell-based, human; conditions: Homo sapiens; P-ERK cell activation, IPC-298; numeric bounds; read-out: Cell activity (EC50 μM) IPC-298_P-ERK
How it was run: (§1)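 Mouse B9 (HRAS-driven skin SCC) or human IPC-298 melanoma cells treated with an 8-point compound titration for one hour at 37° C., then lysed. ERK1/2 phosphorylation at Thr202/Tyr204 read by AlphaScreen with total-ERK and phospho-ERK antibodies.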

[2] = test system: A375 (BRAF V600E) cell line; assay: A375 P-ERK inhibition assay (AlphaScreen); format: cell-based, human; conditions: Homo sapiens, A-375; A375_P-ERK
How it was run: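 A375 cells treated with 8-point compound titration for 1 h at 37° C, then lysed. ERK1/2 Thr202/Tyr204 phosphorylation measured by AlphaScreen, using biotinylated total-ERK antibody on donor beads and phospho-specific antibody on acceptor beads.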

B9 (HRAS Q61L) cell line = assay: B9 P-ERK cell activation assay (AlphaScreen); format: cell-based, mouse; conditions: Mus musculus; P-ERK cell activation, B9; numeric bounds; read-out: Cell activity (EC50 μM) B9_pERK
How it was run: as §1

BRAF V600E = biological target: T1, BRAF V600E (Homo sapiens, UniProt P15056, V600E); assay: BRAF V600E biochemical kinase activity assay (AlphaScreen, biotin-MEK1 substrate); conditions: BRAF V600E biochemical inhibitory activity
T1 construct: purchased Upstate Biotechnology
T1 sequence (P15056 whole entry V600E): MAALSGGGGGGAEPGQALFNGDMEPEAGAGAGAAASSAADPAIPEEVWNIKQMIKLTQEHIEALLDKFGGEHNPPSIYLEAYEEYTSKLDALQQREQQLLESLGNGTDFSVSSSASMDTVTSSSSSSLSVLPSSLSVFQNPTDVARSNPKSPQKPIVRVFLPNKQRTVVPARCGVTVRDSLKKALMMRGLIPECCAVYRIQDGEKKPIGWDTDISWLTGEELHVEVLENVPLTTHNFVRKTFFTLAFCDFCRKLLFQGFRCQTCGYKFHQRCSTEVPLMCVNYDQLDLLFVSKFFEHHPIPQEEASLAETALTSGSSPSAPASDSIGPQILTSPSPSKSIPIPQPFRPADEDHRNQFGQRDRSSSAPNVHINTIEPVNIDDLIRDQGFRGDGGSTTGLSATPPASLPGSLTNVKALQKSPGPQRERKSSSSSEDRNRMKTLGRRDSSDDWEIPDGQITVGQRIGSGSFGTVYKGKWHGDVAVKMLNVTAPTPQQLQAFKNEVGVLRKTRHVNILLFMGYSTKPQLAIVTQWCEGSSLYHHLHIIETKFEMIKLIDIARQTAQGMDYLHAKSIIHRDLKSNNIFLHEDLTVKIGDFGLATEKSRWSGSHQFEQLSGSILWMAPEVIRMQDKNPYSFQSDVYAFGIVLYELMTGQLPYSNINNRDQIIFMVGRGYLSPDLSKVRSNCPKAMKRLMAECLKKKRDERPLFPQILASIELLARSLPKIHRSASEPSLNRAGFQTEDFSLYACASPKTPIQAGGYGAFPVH

Structure (SMILES)	EC50 [1]	IC50 [2]	EC50 (B9 (HRAS Q61L) cell line)	IC50 (BRAF V600E)
COCCNc1ncnc2[nH]cc(C(=O)c3cccc(NS(=O)(=O)N4CCCC4)c3F)c12 [P-2104, N-[2-fluoro-3-[4-(2-methoxyethylamino)-7H-pyrrolo[2,3-d]pyrimidine-5-carbonyl]phenyl]pyrrolidine-1-sulfonamide]	> 10 µM	0.0001 to 1 µM	> 10 µM	0.0001 to 1 µM
COCCCNc1ncnc2[nH]cc(C(=O)c3cccc(NS(=O)(=O)N4CCCC4)c3F)c12 [P-2105, N-[2-fluoro-3-[4-(3-methoxypropylamino)-7H-pyrrolo[2,3-d]pyrimidine-5-carbonyl]phenyl]pyrrolidine-1-sulfonamide]	> 10 µM	0.0001 to 1 µM	> 10 µM	0.0001 to 1 µM
CCC(C)S(=O)(=O)Nc1cccc(-c2nc(C(C)(C)C)sc2-c2ccnc(N)n2)c1F (stereo not shown) [P-2106, N-[3-[5-(2-aminopyrimidin-4-yl)-2-tert-butyl-thiazol-4-yl]-2-fluoro-phenyl]butane-2-sulfonamide]	> 10 µM	0.0001 to 1 µM	> 10 µM	0.0001 to 1 µM
COC(=O)C(CC(C)C)Nc1ncnc2[nH]cc(C(=O)c3cccc(NS(=O)(=O)N4CCCC4)c3F)c12 (stereo not shown) [P-2107, methyl 2-[[5-[2-fluoro-3-(pyrrolidin-1-ylsulfonylamino)benzoyl]-7H-pyrrolo[2,3-d]pyrimidin-4-yl]amino]-4-methyl-pentanoate]	> 10 µM	1 to 10 µM	> 10 µM	0.0001 to 1 µM
CC(C)(O)CCNc1ncnc2[nH]cc(C(=O)c3cccc(NS(=O)(=O)N4CCCC4)c3F)c12 [P-2108, N-[2-fluoro-3-[4-[(3-hydroxy-3-methyl-butyl)amino]-7H-pyrrolo[2,3-d]pyrimidine-5-carbonyl]phenyl]pyrrolidine-1-sulfonamide]	> 10 µM	0.0001 to 1 µM	> 10 µM	0.0001 to 1 µM
O=C(O)CNc1ncnc2[nH]cc(C(=O)c3cccc(NS(=O)(=O)N4CCCC4)c3F)c12 [P-2109, 2-[[5-[2-fluoro-3-(pyrrolidin-1-ylsulfonylamino)benzoyl]-7H-pyrrolo[2,3-d]pyrimidin-4-yl]amino]acetic acid]	> 10 µM	1 to 10 µM	> 10 µM	0.0001 to 1 µM
O=C(c1cccc(NS(=O)(=O)N2CCCC2)c1F)c1c[nH]c2ncnc(NCCN3CCOCC3)c12 [P-2110, N-[2-fluoro-3-[4-(2-morpholinoethylamino)-7H-pyrrolo[2,3-d]pyrimidine-5-carbonyl]phenyl]pyrrolidine-1-sulfonamide]	> 10 µM	0.0001 to 1 µM	> 10 µM	0.0001 to 1 µM
O=C(c1cccc(NS(=O)(=O)N2CCCC2)c1F)c1c[nH]c2ncnc(NCCCN3CCOCC3)c12 [P-2111, N-[2-fluoro-3-[4-(3-morpholinopropylamino)-7H-pyrrolo[2,3-d]pyrimidine-5-carbonyl]phenyl]pyrrolidine-1-sulfonamide]	> 10 µM	0.0001 to 1 µM	> 10 µM	0.0001 to 1 µM
CN(C)CC(C)(C)CNc1ncnc2[nH]cc(C(=O)c3cccc(NS(=O)(=O)N4CCCC4)c3F)c12 [P-2113, N-[3-[4-[[3-(dimethylamino)-2,2-dimethyl-propyl]amino]-7H-pyrrolo[2,3-d]pyrimidine-5-carbonyl]-2-fluoro-phenyl]pyrrolidine-1-sulfonamide]	> 10 µM	0.0001 to 1 µM	> 10 µM	0.0001 to 1 µM
CCN(C)S(=O)(=O)Nc1cccc(C(=O)c2c[nH]c3ncnc(NCCCOC)c23)c1F [P-2115, 5-[3-[[ethyl(methyl)sulfamoyl]amino]-2-fluoro-benzoyl]-4-(3-methoxypropylamino)-7H-pyrrolo[2,3-d]pyrimidine]	> 10 µM	0.0001 to 1 µM	> 10 µM	0.0001 to 1 µM
CCN(C)S(=O)(=O)Nc1ccc(F)c(C(=O)c2c[nH]c3ncnc(NCCCOC)c23)c1F [P-2116, 5-[3-[[ethyl(methyl)sulfamoyl]amino]-2,6-difluoro-benzoyl]-4-(3-methoxypropylamino)-7H-pyrrolo[2,3-d]pyrimidine]	> 10 µM	0.0001 to 1 µM	> 10 µM	0.0001 to 1 µM
CCN(C)S(=O)(=O)Nc1ccc(F)c(C(=O)c2c[nH]c3ncnc(NC(C)C)c23)c1F [P-2117, 5-[3-[[ethyl(methyl)sulfamoyl]amino]-2,6-difluoro-benzoyl]-4-(isopropylamino)-7H-pyrrolo[2,3-d]pyrimidine]	> 10 µM	0.0001 to 1 µM	> 10 µM	0.0001 to 1 µM
CCN(C)S(=O)(=O)Nc1ccc(F)c(C(=O)c2c[nH]c3ncnc(N[C@H](C)C4CC4)c23)c1F [P-2118, 4-[[(1R)-1-cyclopropylethyl]amino]-5-[3-[[ethyl(methyl)sulfamoyl]amino]-2,6-difluoro-benzoyl]-7H-pyrrolo[2,3-d]pyrimidine]	> 10 µM	0.0001 to 1 µM	> 10 µM	0.0001 to 1 µM
CCN(C)S(=O)(=O)Nc1ccc(F)c(C(=O)c2c[nH]c3ncnc(NC4CCOCC4)c23)c1F [P-2119, 5-[3-[[ethyl(methyl)sulfamoyl]amino]-2,6-difluoro-benzoyl]-4-(tetrahydropyran-4-ylamino)-7H-pyrrolo[2,3-d]pyrimidine]	> 10 µM	0.0001 to 1 µM	> 10 µM	0.0001 to 1 µM
CC(C)(C)c1nc(-c2cccc(NS(=O)(=O)N3CCCC3)c2F)c(-c2ccnc3[nH]ccc23)s1 [P-2120, N-[3-[2-tert-butyl-5-(1H-pyrrolo[2,3-b]pyridin-4-yl)thiazol-4-yl]-2-fluoro-phenyl]pyrrolidine-1-sulfonamide]	> 10 µM	1 to 10 µM	> 10 µM	0.0001 to 1 µM
Cc1cc2c(-c3sc(C(C)(C)C)nc3-c3cccc(NS(=O)(=O)N4CCCC4)c3F)ccnc2[nH]1 [P-2121, N-[3-[2-tert-butyl-5-(2-methyl-1H-pyrrolo[2,3-b]pyridin-4-yl)thiazol-4-yl]-2-fluoro-phenyl]pyrrolidine-1-sulfonamide]	> 10 µM	0.0001 to 1 µM	> 10 µM	0.0001 to 1 µM
CC(C)(C)c1nc(-c2cccc(NS(=O)(=O)N3CCCC3)c2F)c(-c2ncnc3[nH]ccc23)s1 [P-2122, N-[3-[2-tert-butyl-5-(7H-pyrrolo[2,3-d]pyrimidin-4-yl)thiazol-4-yl]-2-fluoro-phenyl]pyrrolidine-1-sulfonamide]	> 10 µM	0.0001 to 1 µM	> 10 µM	0.0001 to 1 µM
Cc1cc2c(-c3sc(C(C)(C)C)nc3-c3cccc(NS(=O)(=O)N4CCCC4)c3F)ncnc2[nH]1 [P-2123, N-[3-[2-tert-butyl-5-(6-methyl-7H-pyrrolo[2,3-d]pyrimidin-4-yl)thiazol-4-yl]-2-fluoro-phenyl]pyrrolidine-1-sulfonamide]	> 10 µM	0.0001 to 1 µM	> 10 µM	0.0001 to 1 µM
Cc1nc2c(-c3sc(C(C)(C)C)nc3-c3cccc(NS(=O)(=O)N4CCCC4)c3F)ncnc2[nH]1 [P-2124, N-[3-[2-tert-butyl-5-(8-methyl-9H-purin-6-yl)thiazol-4-yl]-2-fluoro-phenyl]pyrrolidine-1-sulfonamide]	> 1 µM	0.0001 to 1 µM	> 10 µM	0.0001 to 1 µM
